Laboratory results published in US9540647B2, “Methods and compositions for the treatment of cancer” (University of South Alabama, priority 2010, dated 2017).
Entries after “also recorded” stand apart in the source; their conditions may differ. Where two headings read alike, the source gives them in different places. Starred links: 1 amine or outer side, 2 acyl side, 3 side chain; linkers in the order of their positions; H or OH if unused. Positions of bridges follow the written chain, without caps; N, C: chain ends. Non-standard residues stand in square brackets, D forms with d. Residues, ends and D or L forms follow the SMILES beside them. Chains are numbered I, II in the order given. Actinocin(9to1) = Cc1c2oc3c(C)ccc(C(=O)[*:1])c3nc-2c(C(=O)[*:2])c(N)c1=O; NMeV = CN[C@H](C(=O)O)C(C)C; Nle = CCCC[C@H](N)C(=O)O; Sar = CNCC(=O)O

Tests used:
[1] = system: ERCC1; settings: A2780-CP70; cited from earlier work
[2] = system: ERCC1, XPD, XRCC1; settings: cited from earlier work; for ERCC1, XPD, or XRCC1 regulation: previous experiments, agents at IC50 doses
[3] = system: MDA-MB-435 (435) and SUM1315 (1315) cells; experiment: Drug sensitivity of cells transfected with shRNA to GLI1 (MTS assay); assay type: cell-based, human; settings: cells transfected with shRNA to GLI1 vs empty vector; 24 hours
Description: MDA-MB-435 (435) and SUM1315 (1315) cells were transfected with either empty vector (vec) or with vector encoding shRNA to GLI1 (shGLI1). Cells were treated with the indicated concentrations of drugs for 24 hours and viability was assessed using an MTS assay (FIG. 62A-FIG. 62C). […] Using real-time quantitative RT-PCR the GLI1 shRNA brings about a decrease of about 50% in the expression of ABCB1 (MDR1) and 90% decrease in ABCG2 (BCRP).

[4] = system: GLI1-knocked down MDA-MB-435 cells; experiment: Migration, invasion and motility of GLI1-knocked down cells with OPN add-back; assay type: cell-based, human
Description: Motility Assay—These experiments were performed as previously described (Shevde, L. A., et al. (2006) Clin. Exp. Metastasis 23, 123-133). Images were acquired at T0, the reading at the initial time, and at T10 (10 h later). The experiment was conducted in duplicate and cell motility was calculated as (T0−T10)/T0, which represents the rate of movement over a 10-h period. For OPN add-back experiments the cells were pretreated for 12 h with 100 ng/ml human OPN (recombinant R & D Systems) and the assay conducted in the presence of OPN. Each experimental group was assessed in duplicate and data were recorded in three fields per well. Thus, six data points were recorded and analyzed per experimental group.
Invasion and Migration Assays—These experiments were performed as previously outlined (18) using a modified Boyden chamber assay. OPN add-back experiments for migration and invasion were conducted as described above with an additional step of pre-treating the cells for 24 h with rOPN. OPN was added to the upper and lower chambers (100 ng/ml) to ensure the OPN was present during the entire duration of the experiment. Each experimental group was assessed as three independent replicates.

[5] = system: RAW264.7 cells; experiment: Osteoclast differentiation (TRAP assay); assay type: cell-based, murine; settings: DM supplemented with OPN (100 ng/ml) or SHH (100 nM) vs DM
Description: Cell lines—Human metastatic breast cancer cells, MDA-MB-231, were cultured in Dulbecco's Modified Eagle's Medium (DMEM/F12; Invitrogen, Carlsbad, Calif.), supplemented with 2 mM L-glutamine, 1 mM sodium pyruvate, 0.02 mM non-essential amino acids, 5% fetal bovine serum, FBS (Atlanta Biologicals, Norcross, Ga.), without antibiotics or antimycotics (cDME/F12). SUM1315 and SUM159 cells (DiMeo, T. A., et al. (2009) Cancer Res 69, 5364-5373) (Asterand, Detroit, Mich.) were cultured in DMEM/F12 supplemented with […], 5% FBS (Atlanta Biologicals) and either 10 ng/ml EGF or 1 ng/ml hydrocortisone, without antibiotics or antimycotics. The SUM1315 cells are derived from a metastasis in a patient with infiltrating ductal carcinoma; SUM159 cells were derived from a primary breast tumor with metaplastic carcinoma. RAW264.7 (ATCC, TIB 71) cells, a murine pre-osteoclastic line capable of differentiation and […] in culture (in presence of RANKL and MCSF), were grown in DMEM with L-glutamine (ATCC, 30-2002) supplemented with 10% FBS. A 2× differentiation medium (DM) was formulated for the RAW 264.7 cells comprising RAW264.7 growth medium supplemented with 20% FBS, RANKL (100 ng/ml) and M-CSF (40 ng/ml) (Matsubara, T., et al. J Bone Miner Res 25, 1068-1076). Conditioned media was harvested from breast cancer cells and mixed in a 1:1 ratio with double strength differentiation medium to assess the effect on osteoclast differentiation. 1×DM was used as control or wherever SHH (R & D Systems, Minneapolis, Minn.) or OPN (R & D Systems) was used alone. The medium on the RAW264.7 cells was replenished every 48 hours. In order to assess the effect of secreted Hh ligands, the neutralizing 5E1 antibody was used (Developmental Studies Hybridoma Bank, at the University of Iowa, Iowa). […] Medium was supplemented with 5E1 (2.5 μg/ml) and was changed on alternate days until the end of the experiment. The effect of OPN on osteoclast activity was assessed by transfecting an OPN shRNA-expressing construct on day 6 post-induction of differentiation. Fresh DM was added the following day and cells were allowed to grow for another 12 hours before termination of experiment. GLI1 expression was silenced in the SUM1315 cells using shRNA targeting GLI1 into pSuperior. gfp+neo (Oligoengine, WA, USA). Silencing of OPN expression was done using OPN-targeting shRNA cloned into pSuper (Oligoengine)
Osteoclast differentiation and activity assays—Tartarate-resistant acid phosphatase (TRAP) assay was conducted for RAW 264.7 following the manufacturer's protocol (Sigma, St. Louis, Mo.). This assay was indicative of the extent of differentiation. […] The percentage of area resorbed was calculated using the NIS-Elements BR. […]

[6] = system: RAW264.7 cells; experiment: Osteoclast resorption activity (OAAS plates); assay type: cell-based, murine; settings: DM with OPN (100 ng/ml) or SHH (100 nM)
Description: Osteoclast differentiation and activity assays—Tartarate-resistant acid phosphatase (TRAP) assay was conducted for RAW 264.7 following the manufacturer's protocol (Sigma, St. Louis, Mo.). This assay was indicative of the extent of differentiation. OAAS plates (Osteogenic Core Technologies, Choongnam, Republic of Korea) were utilized to measure osteoclastic activity. RAW 264.7 cells (25×103) were inoculated in 48-well plates. Cells were treated with serum-free conditioned media from breast cancer cells or 100 nM SHH or 100 ng/ml OPN on the following day. Media was changed every two days and the experiments were terminated either on day 6 (day 7 for knockdown experiments, with transfections being done on the sixth day). At the completion, cells were detached with 5% sodium hypochlorite and the wells were observed under a Nikon Eclipse TS 100 microscope at 10× magnification. […] The percentage of area resorbed was calculated using the NIS-Elements BR. 3.1 software.

[7] = system: c-jun; experiment: c-jun and c-fos protein expression and c-jun phosphorylation in A2780-CP70 cells (Western blot); assay type: cell-based, human; settings: IC50 dose of cisplatin
Description: c-jun protein expression was assessed in cisplatin-treated A2780-CP70 cells using Western blot analysis.
Protein expression of c-fos and phosphorylation of c-jun in cyclopamine-treated A2780-CP70 cells was assessed using Western blot analysis. Protein levels for c-jun, c-fos, phosphorylated c-jun (Ser 63), phosphorylated c-jun (Ser 73), and phosphorylated c-jun (Thr 91, Thr 93) were tested in cytosolic, nuclear, and whole cell fractions at 0 hr, 6 hr, 24 hr, 48 hr, and 72 hr. Internal controls for cytosolic and nuclear fractions included α-tubulin and histone deacetylase 3.
Phosphorylation of c-jun in A2780-CP70 cells transfected with anti-GLI1 shRNA construct was assessed using Western blot analysis. Protein levels for c-jun, phosphorylated c-jun (Ser 63), phosphorylated c-jun (Ser 73), and phosphorylated c-jun (Thr 91, Thr 93) were examined at 0 hr, 6 hr, 24 hr, 48 hr, and 72 hr.

[8] = system: ERCC1, XPD, XRCC1; experiment: ERCC1, XPD and XRCC1 mRNA levels in A2780-CP70 cells (semi-quantitative PCR); assay type: cell-based, human; settings: cells treated with cisplatin
[9] = system: A2780-CP70 cells; settings: A2780-CP70, cisplatin-resistant; cited from earlier work
[10] = system: c-jun; settings: cited from earlier work
[11] = system: A2780-CP70 cells; experiment: Cisplatin sensitivity of A2780-CP70 cells (percent cell growth); settings: read-out: IC50 of cisplatin
Description: Controls included α-tubulin and histone deactylase.
Transfected cells were treated with 0 μM, 2 μM, 5 μM, 10 μM, 30 μM, and 50 μM cisplatin at 24 hr post-transfection.

[12] = system: OPN promoter; experiment: OPN promoter luciferase reporter assay in metastatic melanoma cell lines; assay type: cell-based, human; settings: MCC012A and MCC012F cell lines; tomatidine
From the text: Empty pGL3 vector was used as control. […] Readings were normalized to total protein content. Each parameter was studied in triplicate and the experiment repeated at least 3 times. The data are represented as percent luciferase activity, which was derived as a percent of the relative light units in treated groups compared with the untreated groups.

Cc1c2oc3c(C)ccc(C(=O)N[C@@H]4C(=O)N[C@H](C(C)C)C(=O)N5CCC[C@H]5C(=O)N(C)CC(=O)N(C)[C@@H](C(C)C)C(=O)O[C@@H]4C)c3nc-2c(C(=O)N[C@@H]2C(=O)N[C@H](C(C)C)C(=O)N3CCC[C@H]3C(=O)N(C)CC(=O)N(C)[C@@H](C(C)C)C(=O)O[C@@H]2C)c(N)c1=O [actinomycin D] (I: T[dV]P[Sar][NMeV] / II: T[dV]P[Sar][NMeV]; ester I:1-I:C, II:1-II:C; linker I:N-II:N via Actinocin(9to1))
ERCC1 up-regulation after cisplatin exposure [1]: blunted ERCC1 up-regulation

C[C@@H]1C[C@@H]([C@H](O)CC2CC(=O)NC(=O)C2)C(=O)[C@@H](C)C1 [cycloheximide]
ERCC1 up-regulation after cisplatin exposure [1]: blunted ERCC1 up-regulation

CC[C@H](C)[C@@H]1NC(=O)CNC(=O)[C@@H]2Cc3c([nH]c4cc(O)ccc34)[S+]([O-])C[C@@H](NC(=O)CNC1=O)C(=O)N[C@@H](CC(N)=O)C(=O)N1C[C@H](O)C[C@H]1C(=O)N[C@@H]([C@@H](C)[C@@H](O)CO)C(=O)N2 (stereo in doubt) [α-amanitin]
ERCC1 up-regulation after cisplatin exposure [1]: blunted ERCC1 up-regulation

CCCCCCCCCCCCCC(=O)O[C@@H]1[C@@H](C)[C@@]2(O)[C@@H](C=C(CO)C[C@]3(O)C(=O)C(C)=C[C@@H]23)[C@@H]2C(C)(C)[C@]12OC(C)=O [phorbol ester]
ERCC1, XPD, or XRCC1 regulation [2]: up-regulated

CO[C@H]1[C@@H](OC)C[C@H](C)[C@@H](OC)C2=CC(=O)C=C(NC(=O)/C(C)=C/C=C\[C@H](OC)[C@@H](OC(N)=O)/C(C)=C/[C@@H]1C)C2=O [herbimycin A]
ERCC1 up-regulation after cisplatin exposure [1]: blunted ERCC1 up-regulation

CCCC[C@@H](C=O)NC(=O)[C@H](CC(C)C)NC(=O)[C@H](CC(C)C)NC(C)=O [N-acetyl-leucyl-leucyl-norleucinal] (Ac-Leu-Leu-[Nle]-aldehyde)
ERCC1 up-regulation after cisplatin exposure [1]: blunted ERCC1 up-regulation

[Pt] [platinum]
ERCC1 up-regulation after cisplatin exposure [1]: blunted ERCC1 up-regulation

COc1cccc2c1C(=O)c1c(O)c3c(c(O)c1C2=O)C[C@@](O)(C(=O)CO)C[C@@H]3O[C@H]1C[C@H](N)[C@H](O)[C@H](C)O1 [doxorubicin]
sensitivity to drug (viability, MTS assay) [3]: increased sensitivity

OPN: recombinant human osteopontin (R & D Systems)
cell motility (wound healing assay) ([4]; KO1 and KO4 cells in presence of recombinant OPN): restored | cell invasion through Matrigel ([4]; KO1 and KO4 cells, OPN 100 ng/ml vs untreated): significantly larger numbers | cell migration ([4]; KO1 and KO4 cells, OPN 100 ng/ml vs untreated, modified Boyden chamber): significantly larger numbers | numbers of multinucleate TRAP-positive cells [5]: stimulate osteoclast differentiation; also recorded: significantly (* indicates p<0.005) increases | resorption activity of differentiated osteoclasts [6]: significantly (* indicates p<0.001) increases the resorption activity

CC(=O)O[C@H]1C(=O)[C@@]2(C)[C@H]([C@H](OC(=O)c3ccccc3)[C@]3(O)C[C@H](OC(=O)[C@H](O)[C@@H](NC(=O)c4ccccc4)c4ccccc4)C(C)=C1C3(C)C)[C@]1(OC(C)=O)CO[C@@H]1C[C@@H]2O [taxol]
sensitivity to drug (viability, MTS assay) [3]: increased sensitivity

CC(=O)N[C@@H](CSC(=O)[C@]1([C@@H](O)C(C)C)NC(=O)[C@H](C)[C@@H]1O)C(=O)O [lactacystin]
ERCC1 up-regulation after cisplatin exposure [1]: blunted ERCC1 up-regulation

N.N.[Cl][Pt][Cl] [cisplatin]
c-jun protein expression [7]: increased substantial between 0-6 hr | expression levels of ERCC1, XPD, and XRCC1 proteins, increase [8]: 5 fold | IC50 [9]: ~40 µM | phosphorylation of c-jun protein, peak over baseline ([10]; 3-5 hr after cisplatin treatment): 15 fold | time of peak c-jun (Ser 63/73) protein levels ([10]; after cisplatin exposure): 3 to 5 h | expected increase in ERCC1 mRNA levels ([2]; cells treated with cisplatin only): 6 fold | ERCC1 mRNA half-life ([2]; cisplatin-treated cells (14 hr in untreated cells)): 24 h | ERCC1, XPD, or XRCC1 regulation [2]: up-regulated | IC50 ([11]; cells transfected with 0.07 μg/well anti-Gli1 shRNA construct, cisplatin at 24 hr post-transfection): 8 µM | IC50 ([11]; control cells): 28 µM

Cc1cc(C)c(/C=C2\C(=O)Nc3ccccc32)[nH]1 [SU5416]
ERCC1 up-regulation after cisplatin exposure [1]: blunted ERCC1 up-regulation

[Cr] [chromium]
ERCC1 up-regulation after cisplatin exposure [1]: blunted ERCC1 up-regulation

C[C@H]1CC[C@]2(NC1)O[C@H]1C[C@H]3[C@@H]4CC[C@H]5C[C@@H](O)CC[C@]5(C)[C@H]4CC[C@]3(C)[C@H]1[C@@H]2C [Tomatidine, tomatidine]
promoter activity of OPN [12]: no effect

B1: interleukin 1-α (protein, UniProt P01583 113-271, looked up)
Interleukin-1 alpha: SAPFSFLSNVKYNFMRIIKYEFILNDALNQSIIRANDQYLTAAALHNLDEAVKFDMGAYKSSKDDAKITVILRISKTQLYVTAQDEDQPVLLKEMPEIPKTITGSETNLLFFWETHGTKNYFTSVAHPNLFIATKQDYWVCLAGGPPSITDFQILENQA
ERCC1 up-regulation after cisplatin exposure [1]: blunted ERCC1 up-regulation
